For orientation: melting point means the temperature of the solid-liquid transition. In general, inhibition refers to the share of the control response that was lost under treatment.

Tested on in the first series: not given
Test: not given
Conditions: not given
Molecule `CC(C)=CCOc1ccc(C(=O)/C=C/c2ccncc2)cc1` [Compound 33, (E)-1-(4-((3-methylbut-2-en-1-yl)oxy)phenyl)-3-(pyridin-4-yl)prop-2-en-1-one] returned a melting point of 91 to 93 °C.
`CC(C)=CCOc1ccc(C(=O)/C=C/c2ccc([N+](=O)[O-])cc2)cc1` [Compound 34, (E)-1-(4-((3-methylbut-2-en-1-yl)oxy)phenyl)-3-(4-nitrophenyl)prop-2-en-1-one] came in with a melting point of 100 to 102 °C.
As for `C#CCOc1ccc(C(=O)/C=C/c2cccnc2)cc1` [Compound 36, (E)-1-(4-(prop-2-yn-1-yloxy)phenyl)-3-(pyridin-3-yl)prop-2-en-1-one], the melting point fell in the range of 96 to 98 °C.
In the case of `C#CCOc1ccc(C(=O)/C=C/c2ccncc2)cc1` [Compound 37, (E)-1-(4-(prop-2-yn-1-yloxy)phenyl)-3-(pyridin-4-yl)prop-2-en-1-one], the melting point was in the range of 99 to 101 °C.
On the same count and under the same terms, to `C#CCOc1ccc(C(=O)/C=C/c2ccc([N+](=O)[O-])cc2)cc1` [Compound 38, (E)-3-(4-nitrophenyl)-1-(4-(prop-2-yn-1-yloxy)phenyl)prop-2-en-1-one] belongs 103 to 105 °C.

For a further series, the system named is Vero cells (ATCC CCL-81). The experiment in a line: Cytotoxicity test on Vero cells (WST8/CCK-8 cell viability). Format: cell-based, African green monkey. Particulars: 72 h, up to the highest concentration of 200 μM. The method, then:
(§1) African green monkey kidney cells (Vero ATCC CCL-81) were cultured in Eagle’s Minimal Essential Medium (MEM) (Sigma-Aldrich), supplemented with 10% fetal bovine serum (FBS) (Carlo Erba Reagents, Milan, Italy), 100 U/mL penicillin, and 100 µg/mL streptomycin at 37 °C with 5% CO2. For experiments, cells were seeded into 96-well plates at 10^4 cells/well, and incubated at 37 °C for 24 h. Following washes with PBS, cell monolayer was incubated with 100 µL of serially 2-fold dilution of the compound in the range 200–6.25 µM. Both untreated cells and cells incubated with medium containing solvent dilutions were included in each experiment as controls.
(§2) The cell viability was assessed by a WST8-based assay according to the manufacturer’s instructions (CCK-8, Cell Counting Kit-8, Dojindo Molecular Technologies, Rockville, MD, USA). After 72 h of incubation, culture medium was removed from each well, the monolayer was washed with PBS, and 100 µL of fresh medium containing 10 µL of CCK-8 solution were added. Following a 2 h at 37 °C, the absorbance was measured at 450/630 nm; data were calculated as the percentage of the cell viability relative to the untreated controls.
A general note: Formazan colour is commonly taken as a measure of viable cells.
Take `CC(C)=CCOc1ccc(C(=O)/C=C/c2cccnc2)c(O)c1` [Compound 20]: the “toxicity on Vero cells, in words” value is listed as “moderately toxic”.

Tested on in a further series: not listed separately
Described as above. In kind it is cell-based, African green monkey. Particulars: African green monkey, Vero cells (ATCC CCL-81), Vero cells, mean and 95% confidence interval, read-out: CC50. The method, then:
as §1, §2
On to `CC(C)=CCOc1ccc(C(=O)/C=C/c2cccnc2)c(O)c1` [Compound 20], for which the CC50 at 72 h came to 54.3 µM.

Still in this series, the particulars now being: African green monkey, Vero cells (ATCC CCL-81), Vero cells, mean and 95% confidence interval, read-out: CC50 [μg/mL].
In the case of `CC(C)=CCOc1ccc(C(=O)/C=C/c2cccnc2)c(O)c1` [Compound 20], the CC50 at 72 h came out at 15.9 µg/mL.

The next series deals with C. albicans ATCC 10231. Kind of series: In vitro susceptibility testing, microdilution broth (EUCAST), C. albicans control strain. In kind it is cell-based, Candida albicans. Particulars: Candida albicans, ATCC10231, C. albicans ATCC 10231; mean and 95% confidence interval; read-out: IC50. How it is done: The in vitro antifungal activity of the chalcones was evaluated by a microdilution broth method in accordance with the guidelines provided by the EUCAST Edef 7.3 [22]. Briefly, all strains were cultured on Sabauraud dextrose, then inocula, prepared at 0.5 McFarland, were diluted 1:20 in RPMI-1640 medium (Gibco®, ThermoFisher Scientific Inc., Waltham, MA, USA), containing glucose 2%, 0.3% levo-glutamine buffered to pH 7.0 with 0.165 M 3-(N-morpholino)propanesulfonic acid (MOPS) to yield 1-5 × 10^5 cells/mL. A total of 100 µL of the yeast suspension was inoculated in a 96-well microplate and incubated with 100 µL of serially 2-fold dilution of the compound in the range 200–6.25 µM. The following controls were included: yeast suspensions incubated in RPMI-1640 culture medium (positive growth control), or supplemented with dilutions of DMSO, or fluconazole (Sigma-Aldrich, St. Louis, MO, USA) as a commercial drug. To check the background turbidity of reagents and the sterility of the procedure, dilutions of each compound were incubated in RPMI-1640 culture medium, without yeast inoculum. The inoculated plate was incubated at 37 °C for 24 h, and subsequently the optical density at 630 nm was measured by the Multiskan Ascent microplate reader (Thermo Fisher Scientific Inc.). The effectiveness of the compounds was expressed as percent inhibition relative to the positive growth control when the inhibition […] the 50% at 100 µM. The IC50 value was determined by interpolation of the dose–response curves generated by plotting the percentages of growth inhibition, relative to the drug-free control (set to 100% of growth), as a function of the tested concentrations (on a logarithm scale). Statistical analysis was carried out by the nonlinear regression method using GraphPad Prism version 5.0 for Windows (GraphPad Software, San Diego, CA, USA). All assays were performed in triplicate and at least two independent experiments were carried out.
(Dilution methods test growth across graded concentrations, often in twofold steps.)
Take `CC(C)=CCOc1ccc(C(=O)/C=C/c2cccnc2)c(O)c1` [Compound 20]: the IC50 amounted to 16.8 µM.

Staying with this series, now noted: Candida albicans, ATCC10231, C. albicans ATCC 10231; mean and 95% confidence interval; read-out: IC50 [μg/mL].
For `CC(C)=CCOc1ccc(C(=O)/C=C/c2cccnc2)c(O)c1` [Compound 20], the IC50 was determined as 4.9 µg/mL.

Still in this series, the particulars now being: Candida albicans, ATCC10231; at 100 μM; C. albicans ATCC 10231; 24 h.
The molecule `CC(C)=CCOc1ccc(C(=O)/C=C/c2cccnc2)c(O)c1` [Compound 20] had an inhibition at 100 µM of 81.5 ± 4.7%.
Still for that read-out and setting: to `CC(C)=CCOc1ccc(C(=O)/C=C/c2ccncc2)cc1` [Compound 33, (E)-1-(4-((3-methylbut-2-en-1-yl)oxy)phenyl)-3-(pyridin-4-yl)prop-2-en-1-one] belongs less than 1%; to `CC(C)=CCOc1ccc(C(=O)/C=C/c2ccc([N+](=O)[O-])cc2)cc1` [Compound 34, (E)-1-(4-((3-methylbut-2-en-1-yl)oxy)phenyl)-3-(4-nitrophenyl)prop-2-en-1-one], 37.9 ± 5.2%.
`C#CCOc1ccc(C(=O)/C=C/c2cccnc2)cc1` [Compound 36, (E)-1-(4-(prop-2-yn-1-yloxy)phenyl)-3-(pyridin-3-yl)prop-2-en-1-one]: the inhibition at 100 µM is less than 1%.
In turn, `C#CCOc1ccc(C(=O)/C=C/c2ccncc2)cc1` [Compound 37, (E)-1-(4-(prop-2-yn-1-yloxy)phenyl)-3-(pyridin-4-yl)prop-2-en-1-one] returned an inhibition at 100 µM of less than 1%.
As for `C#CCOc1ccc(C(=O)/C=C/c2ccc([N+](=O)[O-])cc2)cc1` [Compound 38, (E)-3-(4-nitrophenyl)-1-(4-(prop-2-yn-1-yloxy)phenyl)prop-2-en-1-one], the inhibition at 100 µM was 46.3 ± 3.7%.

The series is the same for the next values; noted with them: screen at 100 μM, C. albicans ATCC 10231.
With `CC(C)=CCOc1ccc(C(=O)/C=C/c2ccncc2)cc1` [Compound 33, (E)-1-(4-((3-methylbut-2-en-1-yl)oxy)phenyl)-3-(pyridin-4-yl)prop-2-en-1-one], the “antifungal activity against C. albicans growth, in words” value is “devoid of any effect”.
On the same count and under the same terms, as for `CC(C)=CCOc1ccc(C(=O)/C=C/c2ccc([N+](=O)[O-])cc2)cc1` [Compound 34, (E)-1-(4-((3-methylbut-2-en-1-yl)oxy)phenyl)-3-(4-nitrophenyl)prop-2-en-1-one], the entry is “inactive”.
Same read-out and setting: to `C#CCOc1ccc(C(=O)/C=C/c2cccnc2)cc1` [Compound 36, (E)-1-(4-(prop-2-yn-1-yloxy)phenyl)-3-(pyridin-3-yl)prop-2-en-1-one] belongs “devoid of any effect”; to `C#CCOc1ccc(C(=O)/C=C/c2ccncc2)cc1` [Compound 37, (E)-1-(4-(prop-2-yn-1-yloxy)phenyl)-3-(pyridin-4-yl)prop-2-en-1-one], “devoid of any effect”; to `C#CCOc1ccc(C(=O)/C=C/c2ccc([N+](=O)[O-])cc2)cc1` [Compound 38, (E)-3-(4-nitrophenyl)-1-(4-(prop-2-yn-1-yloxy)phenyl)prop-2-en-1-one], “inactive”.
